The results in this text go back to patent US20260226493A1, “HERBICIDE RESISTANT PLANTS” (SYNGENTA CROP PROTECTION AG, priority 2023, published 2026).

As usually defined, the inhibition is the change of the read-out against control, counted positive when it falls.

What all share (experiment): BIO3-BIO1 mutant enzyme activity in the presence of herbicide, percentage inhibition (fluorometric DAPA assay)
Common to all, as to format: biochemical
What all share (conditions): read-out: percentage inhibition

Assay [1] addresses T1, Arabidopsis thaliana BIO3-BIO1 (BioDA) mutants (Arabidopsis thaliana, UniProt B0F481, F348Q).
T1 construct: with the predicted N-terminal mitochondrial transit peptide removed; 6xHis-tag (N); thrombin cleavage site (N); made in house; host or cells: E. coli BL21 (DE3) bioA
The procedure, abridged: (§1)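 Percentage inhibition compares activity at one of three herbicide concentrations against DMSO, from o-phthalaldehyde-derivatised DAPA fluorescence (ex 410, em 470 nm). Purified N-His BIO3-BIO1 variants (50 nM, E. coli-expressed) saw herbicide 10 min at 20 °C in pH 8.6 EPPS buffer, then 20 μM KAPA plus 100 μM spermidine for 75 min at 20 °C.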

Assay [2] concerns the target T2, Arabidopsis thaliana BIO3-BIO1 (BioDA) mutants (Arabidopsis thaliana, UniProt B0F481, G513P).
T2 construct: with the predicted N-terminal mitochondrial transit peptide removed; 6xHis-tag (N); thrombin cleavage site (N); made in house; host or cells: E. coli BL21 (DE3) bioA
The procedure, abridged: as §1

The target in assay [3] is T3, Arabidopsis thaliana BIO3-BIO1 (BioDA) mutants (Arabidopsis thaliana, UniProt B0F481, G608E).
T3 construct: with the predicted N-terminal mitochondrial transit peptide removed; 6xHis-tag (N); thrombin cleavage site (N); made in house; host or cells: E. coli BL21 (DE3) bioA
T3 sequence (B0F481 23-833 G608E): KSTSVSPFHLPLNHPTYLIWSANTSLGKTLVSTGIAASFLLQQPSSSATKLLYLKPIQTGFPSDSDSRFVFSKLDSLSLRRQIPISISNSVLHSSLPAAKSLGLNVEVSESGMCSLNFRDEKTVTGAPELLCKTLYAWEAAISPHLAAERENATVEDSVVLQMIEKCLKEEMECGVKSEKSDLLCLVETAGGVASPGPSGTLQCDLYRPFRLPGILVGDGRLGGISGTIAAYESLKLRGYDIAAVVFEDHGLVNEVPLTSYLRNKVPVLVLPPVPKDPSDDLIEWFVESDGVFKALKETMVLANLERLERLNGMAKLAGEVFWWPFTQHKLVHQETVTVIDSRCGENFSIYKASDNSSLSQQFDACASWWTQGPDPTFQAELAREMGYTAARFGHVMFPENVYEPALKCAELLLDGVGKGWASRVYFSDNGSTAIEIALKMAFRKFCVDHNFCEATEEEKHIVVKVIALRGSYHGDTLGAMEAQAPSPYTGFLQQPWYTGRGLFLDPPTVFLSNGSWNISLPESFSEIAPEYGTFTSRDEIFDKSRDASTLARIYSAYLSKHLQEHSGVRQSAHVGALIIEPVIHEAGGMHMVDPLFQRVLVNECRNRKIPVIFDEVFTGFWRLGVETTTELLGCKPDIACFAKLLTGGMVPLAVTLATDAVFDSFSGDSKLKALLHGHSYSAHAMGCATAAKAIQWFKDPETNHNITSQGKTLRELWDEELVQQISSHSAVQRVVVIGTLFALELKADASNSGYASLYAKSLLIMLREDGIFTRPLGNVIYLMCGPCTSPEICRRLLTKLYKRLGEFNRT
In outline:
as §1

Assay [4] has as its target T4, Arabidopsis thaliana BIO3-BIO1 (BioDA) mutants (Arabidopsis thaliana, UniProt B0F481, G700A).
T4 construct: with the predicted N-terminal mitochondrial transit peptide removed; 6xHis-tag (N); thrombin cleavage site (N); made in house; host or cells: E. coli BL21 (DE3) bioA
The procedure, abridged: as §1

Assay [5] deals with T5, Arabidopsis thaliana BIO3-BIO1 (BioDA) mutants (Arabidopsis thaliana, UniProt B0F481, Q517F).
T5 construct: with the predicted N-terminal mitochondrial transit peptide removed; 6xHis-tag (N); thrombin cleavage site (N); made in house; host or cells: E. coli BL21 (DE3) bioA
T5 sequence (B0F481 23-833 Q517F): as the sequence (B0F481 23-833 G608E) above, with Q495F, E586G counted along it
In outline:
as §1

In assay [6] the target is T6, Arabidopsis thaliana BIO3-BIO1 (BioDA) mutants (Arabidopsis thaliana, UniProt B0F481, Q517I).
T6 construct: with the predicted N-terminal mitochondrial transit peptide removed; 6xHis-tag (N); thrombin cleavage site (N); made in house; host or cells: E. coli BL21 (DE3) bioA
T6 sequence (B0F481 23-833 Q517I): as the sequence (B0F481 23-833 G608E) above, with Q495I, E586G counted along it
The procedure, abridged:
as §1

The target in assay [7] is T7, Arabidopsis thaliana BIO3-BIO1 (BioDA) mutants (Arabidopsis thaliana, UniProt B0F481, Q517Y).
T7 construct: with the predicted N-terminal mitochondrial transit peptide removed; 6xHis-tag (N); thrombin cleavage site (N); made in house; host or cells: E. coli BL21 (DE3) bioA
T7 sequence (B0F481 23-833 Q517Y): as the sequence (B0F481 23-833 G608E) above, with Q495Y, E586G counted along it
In outline:
as §1

For assay [8], the target named is T8, Arabidopsis thaliana BIO3-BIO1 (BioDA) mutants (Arabidopsis thaliana, UniProt B0F481, S509I).
T8 construct: with the predicted N-terminal mitochondrial transit peptide removed; 6xHis-tag (N); thrombin cleavage site (N); made in house; host or cells: E. coli BL21 (DE3) bioA
T8 sequence (B0F481 23-833 S509I): as the sequence (B0F481 23-833 G608E) above, with S487I, E586G counted along it
In outline:
as §1

In assay [9] the target is T9, Arabidopsis thaliana BIO3-BIO1 (BioDA) mutants (Arabidopsis thaliana, UniProt B0F481, S704H).
T9 construct: with the predicted N-terminal mitochondrial transit peptide removed; 6xHis-tag (N); thrombin cleavage site (N); made in house; host or cells: E. coli BL21 (DE3) bioA
T9 sequence (B0F481 23-833 S704H): as the sequence (B0F481 23-833 G608E) above, with E586G, S682H counted along it
The procedure, abridged: as §1

The target of assay [10] is T10, Arabidopsis thaliana BIO3-BIO1 (BioDA) mutants (Arabidopsis thaliana, UniProt B0F481, S704P).
T10 construct: with the predicted N-terminal mitochondrial transit peptide removed; 6xHis-tag (N); thrombin cleavage site (N); made in house; host or cells: E. coli BL21 (DE3) bioA
T10 sequence (B0F481 23-833 S704P): as the sequence (B0F481 23-833 G608E) above, with E586G, S682P counted along it
In outline: as §1

For assay [11], the target named is T11, Arabidopsis thaliana BIO3-BIO1 (BioDA) mutants (Arabidopsis thaliana, UniProt B0F481, V354A).
T11 construct: with the predicted N-terminal mitochondrial transit peptide removed; 6xHis-tag (N); thrombin cleavage site (N); made in house; host or cells: E. coli BL21 (DE3) bioA
T11 sequence (B0F481 23-833 V354A): as the sequence (B0F481 23-833 G608E) above, with V332A, E586G counted along it
In outline:
as §1

Assay [12] addresses T12, Arabidopsis thaliana BIO3-BIO1 (BioDA) mutants (Arabidopsis thaliana, UniProt B0F481, V354T).
T12 construct: with the predicted N-terminal mitochondrial transit peptide removed; 6xHis-tag (N); thrombin cleavage site (N); made in house; host or cells: E. coli BL21 (DE3) bioA
In outline: as §1

The structures appear in SMILES notation.

T12 sequence (B0F481 23-833 V354T): as the sequence (B0F481 23-833 G608E) above, with V332T, E586G counted along it
T1 sequence (B0F481 23-833 F348Q): as the sequence (B0F481 23-833 G608E) above, with F326Q, E586G counted along it
T2 sequence (B0F481 23-833 G513P): as the sequence (B0F481 23-833 G608E) above, with G491P, E586G counted along it
T4 sequence (B0F481 23-833 G700A): as the sequence (B0F481 23-833 G608E) above, with E586G, G678A counted along it

In the case of `CCn1c(C)c(-c2ccc(F)cc2F)c(=O)c(C(=O)O)c1-c1ccc(Cl)c(Cl)c1` [Compound C, 2-(3,4-dichlorophenyl)-5-(2,4-difluorophenyl)-1-ethyl-6-methyl-4-oxo-pyridine-3-carboxylic acid], the inhibition at 0.2 µM in assay [1] turned out to be 3%; in assay [2], 52%; in assay [3], 25%; in assay [4], 4%; in assay [5] it was 29%; in assay [6], 25%. The inhibition at 0.2 µM in [7] was 49%; in assay [8], 38%; in assay [9], 0%; in [10], 1%; in assay [11], 0%; in [12], 0%. For the same compound, the inhibition at 1 µM in assay [1] came out at 0%; in assay [2] it was 95%; in [3] it was 52%; in assay [4], 7%; in assay [5], 55%; in assay [6] it was 58%. Besides, the inhibition at 1 µM in assay [7] is 86%; in [8], 84%; in assay [9], 0%; in assay [10], 23%; in assay [11] it was 26%; in assay [12], 56%. Further, the inhibition at 5 µM in [1] came to 25%; in assay [2] it was 99%; in [3], 81%; in [4], 28%; in assay [5] it was 85%; in assay [6] it was 82%. Also, the inhibition at 5 µM in assay [7] stood at 97%; in [8], 99%; in assay [9], 0%; in assay [10], 60%; in assay [11] it was 75%; in assay [12], 92%.
On to `CCn1c(Cn2ccc(C(F)(F)F)n2)cc(=O)c(C(=O)O)c1-c1ccc(Cl)c(Cl)c1` [Compound L, 2-(3,4-dichlorophenyl)-1-ethyl-4-oxo-6-[[3-(trifluoromethyl)pyrazol-1-yl]methyl]pyridine-3-carboxylic acid], for which the inhibition at 0.01 µM in [1] was 0%; in assay [2] it was 5%; in assay [3], 31%; in assay [4], 6%. Moreover, the inhibition at 0.075 µM in assay [1] worked out at 0%; in assay [2], 46%; in assay [3] it was 58%; in [4], 6%. For the same compound, the inhibition at 0.5 µM was determined as 3% in assay [1], 86% in assay [2], 68% in assay [3] and 3% in [4].
As to `CCOC(=O)c1nn(-c2ccc3c(c2)OC(F)(F)C(F)(F)O3)c2cccc(C(C)=O)c2c1=O` [Compound A, ethyl 5-acetyl-4-oxo-1-(2,2,3,3-tetrafluoro-1,4-benzodioxin-6-yl)cinnoline-3-carboxylate], the inhibition at 1 µM in [1] amounted to 7%; in assay [2] it was 63%; in assay [3], 56%; in assay [4] it was 0%; in assay [5], 20%; in [6] it was 28%. The inhibition at 1 µM was determined as 52% in [7]; 0% in [8]; 0% in assay [9]; 56% in assay [10]; 9% in assay [11]; 61% in assay [12].
`CCn1c(-c2ccc(Cl)c(Cl)c2)c(C(=O)O)c(=O)c2cc(F)ccc21` [Compound M, 2-(3,4-dichlorophenyl)-1-ethyl-6-fluoro-4-oxo-quinoline-3-carboxylic acid]: the inhibition at 0.2 µM in assay [1] turned out to be 0%; in [2], 52%; in assay [3], 19%; in assay [4] it was 7%; in assay [5] it was 0%; in assay [6] it was 19%. Further, the inhibition at 0.2 µM in assay [7] came out at 36%; in assay [8], 30%; in assay [9], 0%; in assay [10], 0%; in assay [11] it was 6%; in [12], 4%. The inhibition at 1 µM in [1] was determined as 0%; in assay [2] it was 83%; in [3], 55%; in [4], 8%; in assay [5], 29%; in assay [6], 44%. Further, the inhibition at 1 µM in [7] amounted to 71%; in assay [8] it was 65%; in [9], 0%; in [10] it was 16%; in assay [11], 13%; in assay [12], 47%. For the same compound, the inhibition at 5 µM is 16% in assay [1]; 97% in assay [2]; 85% in assay [3]; 6% in assay [4]; 70% in [5]; 72% in assay [6]. Moreover, the inhibition at 5 µM amounted to 90% in [7]; 92% in assay [8]; 0% in assay [9]; 47% in [10]; 65% in assay [11]; 88% in [12].
